Source: patent US20130196986A1 (priority 2010, published 2013)

Each molecule was assayed against T1, P2X7 receptor (Homo sapiens, UniProt Q99572) (assay: Ca++ flux assay (FLIPR) in P2X7-HEK-293 cell line stably expressing the full length P2X7 receptor, Bz-ATP activation). Conditions: P2X7-HEK-293 cells; agonist Bz-ATP; fluorescence as total area over 90 seconds; read-out: P2X7 Ca Flux hu IC50.
T1 construct: stably expressing the full length P2X7 receptor; expressed in transfected cells
T1 sequence (Q99572 1-595): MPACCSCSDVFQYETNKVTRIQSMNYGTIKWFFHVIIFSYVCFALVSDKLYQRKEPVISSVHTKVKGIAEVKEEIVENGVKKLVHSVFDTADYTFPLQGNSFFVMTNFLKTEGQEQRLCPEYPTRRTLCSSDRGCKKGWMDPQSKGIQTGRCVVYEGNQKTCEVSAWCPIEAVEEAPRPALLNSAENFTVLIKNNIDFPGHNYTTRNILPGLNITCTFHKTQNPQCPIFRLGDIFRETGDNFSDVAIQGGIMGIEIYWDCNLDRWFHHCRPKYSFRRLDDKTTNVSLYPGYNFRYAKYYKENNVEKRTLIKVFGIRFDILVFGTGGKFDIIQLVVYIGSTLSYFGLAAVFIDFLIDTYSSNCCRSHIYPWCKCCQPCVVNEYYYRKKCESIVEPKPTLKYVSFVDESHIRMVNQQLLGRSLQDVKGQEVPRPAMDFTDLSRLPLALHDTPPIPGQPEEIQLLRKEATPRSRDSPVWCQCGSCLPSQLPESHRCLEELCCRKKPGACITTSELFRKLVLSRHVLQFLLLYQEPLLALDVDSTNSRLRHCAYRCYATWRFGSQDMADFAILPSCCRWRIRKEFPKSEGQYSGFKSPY
Type: cell-based
Description: The ability of Triazolopyrazinone Compounds to inhibit P2X7 function can be determined in Ca^++ flux assay using a P2X7-HEK-293 cell line stably expressing the full length P2X7 receptor. The assay protocol is as described in Cheewatrakoolpong et al., Biochem. Biophys. Res. Commun. 332:17-27 (2005) with minor modification, and is as summarized hereinafter. Briefly, cells were plated in poly-D-lysine-coated wells, and incubated at 37° C. for 24 hours. Cells were then incubated for 1 hour with a loading buffer which contains a dye sensitive to changes in Ca^++ concentration (lx Calcium Plus no wash dye from Molecular Devices, Sunnyvale, Calif.). The test compounds were added to the wells in the dye loading step. Plates containing the wells were transferred to a Fluorometric Imaging Plate Reader (Molecular Devices, Sunnyvale, Calif.). The cells were activated by the addition of the P2X7 receptor agonist 2′(3) —O-(4-benzoylbenzoyl)adenosine 5′-triphosphate (Bz-ATP from Sigma-Aldrich, St. Louis, Mo.), and the fluorescence was monitored for 90 seconds. The fluorescent signal was determined as the total area over the 90 second run time. Using this protocol, representative Triazolopyrazinone Compounds, compounds 1471 were tested. Tables 3 to 6 show the concentration at which 50% of the maximum response in the Ca^++ was inhibited (IC50) for each of the test compounds.

| SMILES | IC50 |
| --- | --- |
| Cc1cccc(CSc2nnc3c(=O)n(-c4cccc(Cl)c4C)ccn23)c1F [Compound 55, 7-(3-chloro-2-methylphenyl)-3-(2-fluoro-3-methylbenzylthio)-[1,2,4]triazolo[4,3-a]pyrazin-8(7H)-one] | 432 nM |
| Cc1c(Cl)cccc1-n1ccn2c(SCc3c(F)c(F)c(F)c(F)c3F)nnc2c1=O [Compound 106, 7-(3-chloro-2-methylphenyl)-3-(perfluorobenzylthio)-[1,2,4]triazolo[4,3-a]pyrazin-8(7H)-one] | 387 nM |
| Cc1c(Cl)cccc1-n1ccn2c(SCc3ccccc3-c3ccco3)nnc2c1=O [Compound 37, 7-(3-chloro-2-methylphenyl)-3-(2-(furan-2-yl)benzylthio)-[1,2,4]triazolo[4,3-a]pyrazin-8(7H)-one] | 97.4 nM |
| Cc1c(Cl)cccc1-n1ccn2c(SCc3ccccc3-c3ccccc3)nnc2c1=O [Compound 54, 3-(biphenyl-2-ylmethylthio)-7-(3-chloro-2-methylphenyl)-[1,2,4]triazolo[4,3-a]pyrazin-8(7H)-one] | 44 nM |
| O=c1c2nnc(SCc3ccccc3)n2ccn1-c1cccc(C(F)(F)F)c1Cl [Compound 61, 3-(benzylthio)-7-(2-chloro-3-(trifluoromethyl)phenyl)-[1,2,4]triazolo[4,3-a]pyrazin-8(7H)-one] | 44.9 nM |
| Cc1c(-n2ccn3c(SCc4ccccc4C(C)(C)C)nnc3c2=O)cccc1C(F)(F)F [Compound 18, 3-(2-tert-butylbenzylthio)-7-(2-methyl-3-(trifluoromethyl)phenyl)-[1,2,4]triazolo[4,3-a]pyrazin-8(7H)-one] | 56.9 nM |
| Cc1c(Cl)cccc1-n1ccn2c(SCc3ccccc3Cn3cncn3)nnc2c1=O [Compound 38, 3-(2-((1H-1,2,4-triazol-1-yl)methyl)benzylthio)-7-(3-chloro-2-methylphenyl)-[1,2,4]triazolo[4,3-a]pyrazin-8(7H)-one] | 1440 nM |
| Cc1c(-n2ccn3c(SCc4ccccc4-c4cccs4)nnc3c2=O)cccc1C(F)(F)F [Compound 23, 7-(2-methyl-3-(trifluoromethyl)phenyl)-3-(2-(thiophen-2-yl)benzylthio)-[1,2,4]triazolo[4,3-a]pyrazin-8(7H)-one] | 40.4 nM |
| O=c1c2nnc(SCc3ccccc3)n2ccn1-c1cccc(Cl)c1Cl [Compound 95, 3-(benzylthio)-7-(2,3-dichlorophenyl)-[1,2,4]triazolo[4,3-a]pyrazin-8(7H)-one] | 110 nM |
| Cc1c(Cl)cccc1-n1ccn2c(SCc3ccccc3COc3ccccc3)nnc2c1=O [Compound 42, 7-(3-chloro-2-methylphenyl)-3-(2-(phenoxymethyl)benzylthio)-[1,2,4]triazolo[4,3-a]pyrazin-8(7H)-one] | 170 nM |
| Cc1c(Cl)cccc1-n1ccn2c(S(=O)(=O)Cc3ccccc3-c3ccccc3)nnc2c1=O [Compound 155, 3-(biphenyl-2-ylmethylsulfonyl)-7-(3-chloro-2-methylphenyl)-[1,2,4]triazolo[4,3-a]pyrazin-8(7H)-one] | 53.2 nM |
| COC(=O)c1cccc(CSc2nnc3c(=O)n(-c4cccc(Cl)c4C)ccn23)c1 [Compound 91, methyl 3-((7-(3-chloro-2-methylphenyl)-8-oxo-7,8-dihydro-[1,2,4]triazolo[4,3-a]pyrazin-3-ylthio)methyl)benzoate] | 3250 nM |
| Cc1c(Cl)cccc1-n1ccn2c(SC(=O)N(C)c3ccccc3)nnc2c1=O [Compound 50, S-7-(3-chloro-2-methylphenyl)-8-oxo-7,8-dihydro-[1,2,4]triazolo[4,3-a]pyrazin-3-yl methyl(phenyl)carbamothioate] | 6530 nM |
| Cc1c(-n2ccn3c(S(=O)(=O)Cc4ccccc4I)nnc3c2=O)cccc1C(F)(F)F [Compound 133, 3-(2-iodobenzylsulfonyl)-7-(2-methyl-3-(trifluoromethyl)phenyl)-[1,2,4]triazolo[4,3-a]pyrazin-8(7H)-one] | 21.4 nM |
| [2H]c1c([2H])c([2H])c(CS(=O)(=O)c2nnc3c(=O)n(-c4cccc(Cl)c4C)ccn23)c([2H])c1[2H] [Compound 142, deuterated-7-(3-chloro-2-methylphenyl)-3-[(phenyl-(d5)methyl)sulfonyl]-1,2,4-triazolo[4,3-a]pyrazin-8(7H)-one] | 39.5 nM |
| Cc1c(-n2ccn3c(SCc4cc(Cl)cc(Cl)c4)nnc3c2=O)cccc1C(F)(F)F [Compound 69, 3-(3,5-dichlorobenzylthio)-7-(2-methyl-3-(trifluoromethyl)phenyl)-[1,2,4]triazolo[4,3-a]pyrazin-8(7H)-one] | 188 nM |
| O=c1c2nnc(S(=O)(=O)Cc3ccccc3)n2ccn1-c1cccc(C(F)(F)F)c1Cl [Compound 127, 3-(benzylsulfonyl)-7-(2-chloro-3-(trifluoromethyl)phenyl)-[1,2,4]triazolo[4,3-a]pyrazin-8(7H)-one] | 16.3 nM |
| Cc1c(-n2ccn3c(S(=O)(=O)Cc4ccccc4-c4ccc(Cl)cc4)nnc3c2=O)cccc1C(F)(F)F [Compound 118, 3-((4′-chlorobiphenyl-2-yl)methylsulfonyl)-7-(2-methyl-3-(trifluoromethyl)phenyl)-[1,2,4]triazolo[4,3-a]pyrazin-8(7H)-one] | 6.9 nM |
| O=c1c2nnc(SCc3ccccc3-c3ccccc3)n2ccn1-c1cccc(C(F)(F)F)c1Cl [Compound 48, 3-(biphenyl-2-ylmethylthio)-7-(2-chloro-3-(trifluoromethyl)phenyl)-[1,2,4]triazolo[4,3-a]pyrazin-8(7H)-one] | 17.3 nM |
| O=c1c2nnc(SCc3ccccc3)n2ccn1-c1cccc(Cl)c1F [Compound 82, 3-(benzylthio)-7-(3-chloro-2-fluorophenyl)-[1,2,4]triazolo[4,3-a]pyrazin-8(7H)-one] | 374 nM |
| Cc1c(-n2ccn3c(SCc4ccsc4)nnc3c2=O)cccc1C(F)(F)F [Compound 14, 7-(2-methyl-3-(trifluoromethyl)phenyl)-3-(thiophen-3-ylmethylthio)-[1,2,4]triazolo[4,3-a]pyrazin-8(7H)-one] | 38.1 nM |
| Cc1c(Cl)cccc1-n1ccn2c(SCc3c(F)cccc3C(F)(F)F)nnc2c1=O [Compound 68, 7-(3-chloro-2-methylphenyl)-3-(2-fluoro-6-(trifluoromethyl)benzylthio)-[1,2,4]triazolo[4,3-a]pyrazin-8(7H)-one] | 475 nM |
| Cc1c(-n2ccn3c(SCc4nc5ccccc5n4C)nnc3c2=O)cccc1C(F)(F)F [Compound 3, 3-((1-methyl-1H-benzo[d]imidazol-2-yl)methylthio)-7-(2-methyl-3-(trifluoromethyl)phenyl)-[1,2,4]triazolo[4,3-a]pyrazin-8(7H)-one] | 5670 nM |
| Cc1c(Cl)cccc1-n1ccn2c(SCc3ccc(F)c(F)c3)nnc2c1=O [Compound 115, 7-(3-chloro-2-methylphenyl)-3-(3,4-difluorobenzylthio)-[1,2,4]triazolo[4,3-a]pyrazin-8(7H)-one] | 893 nM |
| Cc1c(-n2ccn3c(SCc4cccc(F)c4Cl)nnc3c2=O)cccc1C(F)(F)F [Compound 13, 3-(2-chloro-3-fluorobenzylthio)-7-(2-methyl-3-(trifluoromethyl)phenyl)-[1,2,4]triazolo[4,3-a]pyrazin-8(7H)-one] | 130 nM |
| COC(=O)c1ccccc1CSc1nnc2c(=O)n(-c3cccc(Cl)c3C)ccn12 [Compound 90, methyl 2-((7-(3-chloro-2-methylphenyl)-8-oxo-7,8-dihydro-[1,2,4]triazolo[4,3-a]pyrazin-3-ylthio)methyl)benzoate] | 643 nM |
| Cc1c(Cl)cccc1-n1ccn2c(NC(c3ccccc3)c3ccccc3)nnc2c1=O [Compound 167, 3-(benzhydrylamino)-7-(3-chloro-2-methylphenyl)-[1,2,4]triazolo[4,3-a]pyrazin-8(7H)-one] | 1040 nM |
| Cc1c(-n2ccn3c(S(=O)(=O)Cc4ccccc4)nnc3c2=O)cccc1C(F)(F)F [Compound 116] | 29 nM |
| [2H]c1c([2H])c([2H])c(CS(=O)(=O)c2nnc3c(=O)n(-c4cccc(C(F)(F)F)c4C)ccn23)c([2H])c1[2H] [Compound 135, deuterated-7-[2-methyl-3-(trifluoromethyl)phenyl]-3-[(phenyl-(d5)-methyl)sulfonyl]-1,2,4-triazolo[4,3-a]pyrazin-8(7H)-one] | 23.3 nM |
| Cc1c(Cl)cccc1-n1ccn2c(SCc3ccccn3)nnc2c1=O [Compound 98, 7-(3-chloro-2-methylphenyl)-3-(pyridin-2-ylmethylthio)-[1,2,4]thazolo[4,3-a]pyrazin-8(7H)-one] | 2340 nM |
